Reference: the NIST ThermoML archive (doi:10.1021/je030151s)

Assay: xn = mol fraction of the nth substance listed
Conditions: 101.3 kPa, Liquid; for viscosity: Capillary tube (Ostwald / Ubbelohde) method

CCC(=O)CC [pentan-3-one] + CCc1ccccc1
Conditions	mass density, 293.15 K [kg/m3]	mass density, 303.15 K [kg/m3]	mass density, 313.15 K [kg/m3]	speed of sound, 293.15 K [m/s]	speed of sound, 303.15 K [m/s]	speed of sound, 313.15 K [m/s]	viscosity, 293.15 K [mPa·s]	viscosity, 303.15 K [mPa·s]	viscosity, 313.15 K [mPa·s]
x1 = 0.0911	867	855.9	848.3	1328.5	1290.2	1254.5	0.6538	0.5795	0.5116
x1 = 0.2055	865.5	855.1	847	1319	1281.9	1246.6	0.625	0.5539	0.4881
x1 = 0.3176	863.2	852.8	844.5	1309.6	1272.2	1237.2	0.6015	0.5281	0.4642
x1 = 0.4296	860.1	849.9	840.8	1298	1264.5	1227.2	0.5789	0.5046	0.4429
x1 = 0.5331	854.8	845.3	836.6	1287	1252.3	1217.5	0.5574	0.486	0.4247
x1 = 0.6387	848.5	839.6	830.6	1275	1242	1206	0.534	0.469	0.411
x1 = 0.7378	842.5	833.4	824.5	1263	1230	1195	0.516	0.454	0.399
x1 = 0.8322	835	826.8	817.5	1251	1217.5	1184.4	0.4975	0.441	0.388
x1 = 0.9245	826	818	808	1240.3	1206.6	1172.5	0.4811	0.4309	0.38
x1 = 1	814.4	804.7	794.9	1230.7	1197.8	1159.1	0.4714	0.4231	0.3799

CCC(=O)CC [pentan-3-one] + Cc1ccccc1C
Conditions	mass density, 293.15 K [kg/m3]	mass density, 303.15 K [kg/m3]	mass density, 313.15 K [kg/m3]	speed of sound, 293.15 K [m/s]	speed of sound, 303.15 K [m/s]	speed of sound, 313.15 K [m/s]	viscosity, 293.15 K [mPa·s]	viscosity, 303.15 K [mPa·s]	viscosity, 313.15 K [mPa·s]
x1 = 0.0955	878	870.5	862.4	1357	1328	1287.6	0.7649	0.677	0.5965
x1 = 0.2073	875	868.5	859.4	1345.1	1315	1277	0.7182	0.638	0.565
x1 = 0.3191	871.1	863.1	855	1333.5	1303	1262	0.675	0.6003	0.533
x1 = 0.4298	865.3	857.3	848.8	1318.8	1287	1251	0.636	0.562	0.502
x1 = 0.5338	859.5	850.5	842.5	1306	1272	1238	0.6001	0.5271	0.474
x1 = 0.6363	852.1	844	835.5	1292.2	1255.8	1224	0.568	0.497	0.447
x1 = 0.7329	845	837.3	827.9	1279.4	1245	1208.3	0.537	0.4719	0.424
x1 = 0.8283	836.8	829.1	819.9	1266.2	1229	1194	0.51	0.4481	0.4034
x1 = 0.9242	826.3	817	808.2	1250.9	1213	1179.3	0.4882	0.4333	0.3872
x1 = 1	814.4	804.7	794.9	1230.7	1197.8	1159.1	0.4714	0.4231	0.3799
